Literature values as cited in US20070231388A1, “Novel Pharmaceutical Dosage Form and Manufacturing Process” (Atlana Pharma AG, priority 2004, published 2007).

Conditions: in comparison to pantoprazole itself or to pantoprazole sodium sesquihydrate

Q: With `COc1ccnc(C[S+]([O-])c2nc3cc(OC(F)F)ccc3[n-]2)c1OC.COc1ccnc(C[S+]([O-])c2nc3cc(OC(F)F)ccc3[n-]2)c1OC.O.O.[Mg+2]` (stereo not shown) [Magnesium bis[5-[difluoromethoxy]-2-[[3,4-dimethoxy-2-pyridinyl]-methyl]sulfinyl]-1H-benzimidazolide]dihydrate] as the compound, how does the stability properties read?
A: improved stability properties
